The test concerns Plasmodium falciparum. In words: GSK_TCMDC: Inhibition of Plasmodium falciparum 3D7 in whole erythrocytes, using parasite LDH activity as an index of growth. The class given is functional, organism-based. Particulars: Plasmodium falciparum, 3D7.
As to `Cc1cc(N/N=C/c2ccccc2[N+](=O)[O-])c2ccc(F)cc2n1`, the XC50 was found to be 0.35 µM.

The compound `CCN(CC)CCN(Cc1ccc(-c2ccc(C(F)(F)F)cc2)cc1)C(=O)Cn1c(CCc2cccc(F)c2F)nc(=O)c2ccc(C(F)(F)F)cc21` showed an XC50 of 0.783 µM.

In turn, `COc1c(C2CCN(CCCCNC(=O)c3cc(-c4ccc(C#N)cc4)n[nH]3)CC2)ccc2c1CCCC2` returned an XC50 of 1.16 µM.

Compound `CCC[C@@H](/C=N/N(C)C(=O)OC(C)(C)C)NC(=O)[C@H](CC(C)C)NC(=O)c1cc2cccc(OC)c2o1` had an XC50 of 1.08 µM.

`O=C(Nc1ccc(F)cc1)NC1CCN(c2ccnc3cc(Cl)ccc23)C1` (stereo not drawn) registered an XC50 of 0.218 µM.

As to `CN(C)CCN(C)Cc1nc(-c2ccc3c(Nc4ccc(Oc5ccccc5)cc4)ccnc3c2)cs1`, the XC50 came out at 0.212 µM.

Take `CCN(CCCN1CCCCC1)c1cc(C)nc(Nc2ccc3c(c2)CCC3)n1`: the XC50 came out at 0.394 µM.

On to `CSc1ccc2nccc(Nc3ccc(Oc4ccccc4)cc3)c2c1`, for which the XC50 turned out to be 0.871 µM.

As for `Cc1cc(CNCCCCCNCc2cccc([N+](=O)[O-])c2)ccc1O`, the XC50 is 0.784 µM.

Compound `CCCN(CC1CC1)c1nc(C)nc2c(-c3ccccc3)cc(C)cc12` yielded an XC50 of 1.02 µM.

With `CCN(CC)S(=O)(=O)c1ccc(C=CC(=O)Nc2cc(Cl)ccc2N2CCOCC2)cc1`, the XC50 was found to be 0.92 µM.

`CC(C)c1nc2c(N)nc(N)nc2nc1N` yielded an XC50 of 1.31 µM.

`COc1ccc2c(=NN=Cc3cccc(Cl)c3)cc(C)[nH]c2c1` displayed an XC50 of 0.732 µM.

`Cc1ccc2c(OCCN3CCC(Cc4ccc5c(c4)NC(=O)CO5)CC3)cc(F)cc2n1`: the XC50 was determined as 0.755 µM.

Turning to `O=C(Nc1ccc(Cl)c(Cl)c1)Nc1ccc2nccc(N3CCN(Cc4ccccc4)CC3)c2c1`, the XC50 amounted to 0.158 µM.

In turn, `CCOC(=O)c1nc(-c2ccc(Cl)cc2)[nH]c1NC(=S)NCCCN1CCOCC1` showed an XC50 of 0.868 µM.

Compound `Cc1cc(-c2cccc3c(C(=O)N4CCc5cc6nccc(N7CCN8CCC[C@H]8C7)c6cc54)cccc23)cc(C)n1` came in with an XC50 of 0.709 µM.

`Cc1nc(N)nc(N)c1CCCOc1ccccc1Br` showed an XC50 of 0.424 µM.

In the case of `COc1ccc2nc(C)cc(Nc3ccc(Cl)c(Cl)c3)c2c1`, the XC50 worked out at 0.441 µM.

`O=C(Nc1ccc(Oc2ccccc2)cc1)N1CCC(CCN2CCC(c3c[nH]c4ccccc34)CC2)CC1` showed an XC50 of 0.795 µM.

Compound `N=C(N)Nc1nc(-c2cccc(NC(=O)CCCCCCCON3C(N)=NC(N)=NC34CCCCC4)c2)cs1` had an XC50 of 0.0435 µM.

Compound `CCc1cccc(NC(=O)c2ccc(CN3CCCN(CC4CCCCC4)CC3)cc2)c1` had an XC50 of 0.402 µM.

Regarding `O=C(Nc1ccc(-c2cccc(-c3nc4cc(F)ccc4[nH]3)c2)cc1)Nc1ccsc1`, the XC50 turned out to be 0.693 µM.

`CN(C)CCC=C1c2ccccc2Sc2c(O)cc(Cl)cc21` came in with an XC50 of 0.277 µM.

`CC(=O)c1c(Cc2cccc(C(F)(F)F)c2)c[nH]c1C` showed an XC50 of 0.346 µM.

With `Cc1ccc(Nc2nc(-c3ccccn3)cs2)nc1`, the XC50 is 0.752 µM.

Consider `CN(CCS(C)(=O)=O)Cc1ccc(-c2ccc3ncnc(Nc4ccc(OCc5cccc(F)c5)c(Cl)c4)c3c2)o1`, for which the XC50 worked out at 0.681 µM.

Take `O=C(CCc1cccnc1)Nc1ccc(-c2cccc(-c3nc4cc(F)ccc4[nH]3)c2)cc1`: the XC50 was 0.922 µM.

In the case of `NS(=O)(=O)c1cccc(Nc2nccc(-c3cnn4ncccc34)n2)c1`, the XC50 turned out to be 0.661 µM.

As for `COc1cccc(OC)c1OCCCOc1c(C)nc(N)nc1N`, the XC50 worked out at 0.459 µM.

The compound `CCCCCCCCCCN1C(=O)C2C(CCCCNC(C)=O)NC3(C(=O)N(Cc4ccc(C(C)(C)C)cc4)c4ccccc43)C2C1=O` (stereo not drawn) showed an XC50 of 0.993 µM.

The compound `O=C(/C=C/c1ccc(I)cc1)NCCCCCN1CCC(c2c[nH]c3ccc(O)cc23)CC1` showed an XC50 of 0.773 µM.

`O=C(Nc1ccc(Cl)c(Cl)c1)N1CCc2ccc(OCCCN3CCCCC3)cc2CC1` registered an XC50 of 1.52 µM.

`Cc1[nH]c(C)c(-c2ccc(-c3ccc(C(F)F)cc3)nc2)c(=O)c1Cl` gave an XC50 of 0.241 µM.

Consider `CC(C)(C)Nc1cc(C(=O)N[C@@H](Cc2ccccc2)[C@H](O)CNC2CCOCC2)cc(N2CCCCS2(=O)=O)c1`, for which the XC50 was found to be 0.15 µM.

Regarding `CC(C)c1ccc(NC(=O)N[C@H]2CCN(CCCCCNC(=O)/C=C/c3ccc(Cl)c(Cl)c3)C2)cc1`, the XC50 was 0.71 µM.

`CC(C)c1ccc(CN2CCC(NC(=O)c3ccc(-c4cccc(Cl)c4)s3)CC2)cc1` displayed an XC50 of 1.43 µM.

In turn, `CC(C)c1cn2c3c(cc(C(=O)N[C@@H](Cc4ccccc4)[C@H](O)CNC4CCOCC4)cc13)N(C)S(=O)(=O)CC2` came in with an XC50 of 0.0545 µM.

`c1cncc(NCc2ccc(-c3cc4ccncc4cc3OC3CCNCC3)s2)c1` returned an XC50 of 0.981 µM.

As to `O=C(c1ccc(Br)o1)N1N=C(c2cccs2)CC1c1ccc(Br)cc1` (stereo not drawn), the XC50 was 0.513 µM.

Compound `O=C(C1CC1c1ccccc1)N(Cc1ccc(-c2ccc(CNCCc3ccccc3)cc2)cc1)C1CCNCC1` (stereo not drawn) gave an XC50 of 1.11 µM.

`Cn1nc(-c2ccc(CNC3CCc4ccccc43)cc2)c2cnc(NCCCN3CCCC3)nc21` (stereo not drawn) displayed an XC50 of 1.11 µM.

With `COc1ccc(C(=O)N2CCC3(CC2)C(=O)N(CC(=O)NCC2CCCCC2)CN3c2ccccc2)cc1`, the XC50 was 0.273 µM.

As to `COc1cc(F)c2ncc(Cl)c(CCN3CCC(NCc4ccc5c(c4)NC(=O)CO5)CC3)c2c1`, the XC50 was found to be 0.227 µM.

Take `CN1CCN(Cc2cccc(-c3ccc4c(Nc5cc(O)c(Cl)cc5F)ccnc4c3)c2)CC1`: the XC50 came to 0.77 µM.

Take `O=C(Nc1ccc(-c2nc3ccccc3[nH]2)cc1)C1CCCN(CC2CC2)C1` (stereo not drawn): the XC50 was 0.946 µM.

In turn, `CCC(C)c1ccc(NC(=O)C(C)c2ccc([N+](=O)[O-])cc2)cc1` (stereo not drawn) returned an XC50 of 0.176 µM.

Compound `Cc1nc(-c2ccc(-c3ccc(NC(=O)c4coc5ccc(N6CC(C)N(C)C(C)C6)cc45)cc3)c(C)c2)no1` (stereo not drawn) had an XC50 of 0.767 µM.

With `CC(C)N1CCN(c2ccc(OCCCCN3CCN(c4cccc(Cl)c4Cl)CC3)cc2Cl)CC1`, the XC50 is 1.04 µM.

For the compound `O=S(=O)(NCCN1CCCC1)c1ccc(-c2cccc(CNCCc3cccs3)c2)s1`, the XC50 is 0.705 µM.

In turn, `CC(C)CCNC(=N)Nc1ccc(OCCCCCOc2ccc(NC(=N)NCCC(C)C)cc2)cc1` came in with an XC50 of 1.08 µM.

For the compound `Nc1nccc2ccc(-c3cccc4ncccc34)cc12`, the XC50 turned out to be 0.0524 µM.

As to `COCCn1c(Sc2ncnc3sccc23)nc2ccccc21`, the XC50 turned out to be 0.879 µM.

`Cc1cc(OCCCN2CCC(NS(=O)(=O)c3ccc(Cl)c(Cl)c3)C2)c2ccccc2n1` (stereo not drawn) gave an XC50 of 1.05 µM.

Consider `c1ccc2c(c1)ncn2-c1ccnc(Nc2ccncc2)n1`, for which the XC50 is 0.646 µM.

Take `COc1ccccc1NS(=O)(=O)c1cc(C(=O)Nc2ccc(N3CCOCC3)c(S(=O)(=O)Nc3ccccc3Cl)c2)ccc1Cl`: the XC50 was determined as 0.832 µM.

As to `COc1ccc(OC(C)CNC(=O)c2cc([N+](=O)[O-])ccc2-c2ccc(OC)cc2)cc1` (stereo not drawn), the XC50 turned out to be 1.15 µM.

`CCCn1cc2c(ccc3nc(N)nc(N)c32)n1` returned an XC50 of 0.0814 µM.

As to `O=C(NCCCN1CCCCC1)c1cccc(Nc2nccc(Nc3ccc(Oc4ccccc4)cc3)n2)c1`, the XC50 is 0.821 µM.

For the compound `CC(C)c1ccc(NC(=O)c2cccc(CN3CCCN(CC4CCCCC4)CC3)c2)cc1`, the XC50 stood at 0.71 µM.

The compound `CCCCCCN1CCC(NCc2cccc(C(F)(F)F)c2)CC1` yielded an XC50 of 0.246 µM.

`CC(C)C[C@H](NC(=O)c1ccc(OCCN2CCOCC2)cc1)C(=O)N[C@H](/C=N/NC(=O)OC(C)(C)C)CCc1ccccc1` returned an XC50 of 0.162 µM.

In the case of `Cc1ccc(OC2CCN(c3ccc(C(=O)NC4CC4)cn3)CC2)cc1`, the XC50 was 1.3 µM.

The compound `CC1=C(C(=O)Nc2ccc(Cl)cc2)C(c2ccncc2)n2nc(C(F)(F)F)nc2N1` (stereo not drawn) had an XC50 of 0.935 µM.

For `CCCCc1ccc(C(=O)Nc2ccc3nc(N4CCN(C)CC4)cc(C)c3c2)cc1`, the XC50 stood at 1.1 µM.

As for `Cc1cccc2nc(-c3ccc(-c4ccc(NC(=O)C(C)CN(C)C)cc4)cc3)[nH]c12` (stereo not drawn), the XC50 was 0.681 µM.

Compound `CN(C)c1cc(C(=O)N[C@@H](Cc2ccccc2)[C@H](O)CNC2CCCCC2)cc2[nH]ccc12` displayed an XC50 of 1.07 µM.

`Cc1cc(C(F)(F)F)cc(-n2ncc(-c3ccc(C(=O)NCc4ccccc4N)cc3)c2N)n1` had an XC50 of 0.453 µM.

Compound `Oc1c(C(Nc2ccccn2)c2ccco2)cc(Cl)c2cccnc12` (stereo not drawn) gave an XC50 of 1.01 µM.

Regarding `COc1ccc(-c2c3c(=O)n(C)c(=O)n(C)c3c3nnc4ccccc4n23)cc1`, the XC50 was 0.991 µM.

On to `COc1ccc(Oc2ccc(-c3c(O)cc(C)nc3C)cc2)cc1`, for which the XC50 was 0.612 µM.

Compound `Nc1nccc2ccc(OC3CCCCC3)cc12` gave an XC50 of 0.602 µM.

`O=c1c2ccccc2[nH]c2nc3ccccc3c(Nc3ccccc3)c12` returned an XC50 of 0.141 µM.

As for `CCCc1cc(OC)c(CC2c3cccc(O)c3CCN2C)cc1OC` (stereo not drawn), the XC50 was 0.305 µM.

`COc1cc2c(cc1OCCN1CCC(N)CC1)N(C(=O)/C=C/c1ccccc1Cl)CC2`: the XC50 worked out at 1.12 µM.

In the case of `O=C(Nc1ccc(-c2cccc(-c3nc4cc(F)ccc4[nH]3)c2)cc1)c1ccncc1`, the XC50 amounted to 0.719 µM.

`COc1ccc(Nc2ncc(C#N)c(Nc3ccccc3C(N)=O)n2)cc1N1CCN(C)CC1` displayed an XC50 of 0.136 µM.

Turning to `COc1c(C)cc(I)cc1CNCCCNc1cc(=O)c2ccccc2[nH]1`, the XC50 turned out to be 1.28 µM.

Consider `COc1ccccc1CNC(=O)c1nn(-c2ccc(Cl)cc2)c(=O)c2ccccc12`, for which the XC50 is 0.294 µM.

Compound `CNCCCN(C)C(=O)Oc1c(Br)c(C)nc(C)c1-c1ccc(Oc2ccc(OC(F)(F)F)cc2)cc1` had an XC50 of 0.386 µM.

`CO/C(=C\C=C\c1cc2cc(Cl)c(Cl)cc2[nH]1)C(=O)NC1CCN(CCCc2ccccc2)CC1` had an XC50 of 0.767 µM.

Compound `Clc1cccc(C=NN=c2cc[nH]c3ccccc23)c1` displayed an XC50 of 0.852 µM.

As to `CN(C)CCCN1CCN(Cc2ccc(-c3ccc(-c4nc5ccccc5[nH]4)s3)cc2)CC1`, the XC50 amounted to 0.82 µM.

In the case of `O=C(NC1CCN(Cc2ccsc2)CC1)c1ccc(-c2cccc(C(F)(F)F)c2)s1`, the XC50 came to 1.44 µM.

Turning to `COc1ccc(CN2CCC(NCc3cccc(-n4ccnc4)c3)CC2)cc1`, the XC50 came out at 0.629 µM.

As to `CNC(=O)C1Cc2c([nH]c3c(C)cccc23)C2(N1)C(=O)Nc1ccc(OC(F)(F)F)cc12` (stereo not drawn), the XC50 is 0.464 µM.

As to `CN(C)CCNC(=O)c1ccc(-c2ccc3c(Nc4ccccc4)c(C(N)=O)cnc3c2)cc1`, the XC50 is 0.728 µM.

Consider `COc1ccc(-c2ccc(NC(=O)c3cccc(Cl)c3)cc2)cc1CN1CCCN(C)CC1`, for which the XC50 was determined as 0.603 µM.

For the origin of these results see ChEMBL document CHEMBL1157539, “Thousands of chemical starting points for antimalarial lead identification” (Nature, 2010).
